From patent US20070142392A1, “Uses of rifamycins” (ActivBiotics, Inc., priority 2005, published 2007)
Converted amounts (≈) assume the structure as drawn.

Columns and labels:
Format in all cases: cell-based
H. flu = test system: H. flu
S. pneumo. = experiment: MIC values, S. pneumo. (Tables 1-4)
S. aureus = experiment: MIC values, S. aureus (Tables 1-4)
E. coli = experiment: MIC values, E. coli (Tables 1-4)
E. faecalis = experiment: MIC values, E. faecalis (Tables 1-4)

Row | Structure (SMILES) | MIC H. flu (H. flu) [µg/mL] | MIC S. pneumo. (S. pneumo.) [µg/mL] | MIC S. aureus (S. aureus) [µg/mL] | MIC E. coli (E. coli) [µg/mL] | MIC E. faecalis (E. faecalis) [µg/mL]
1 | CO[C@H]1/C=C/O[C@@]2(C)Oc3c(C)c(O)c4c(=O)c(c5oc6cc(N7CCC(NC(C)=O)CC7)cc(O)c6nc-5c4c3C2=O)NC(=O)/C(C)=C\C=C\[C@H](C)[C@H](O)[C@@H](C)[C@@H](O)[C@@H](C)[C@H](O)[C@@H]1C [Compound 43] | 0.5 (≈ 0.556 µM) | 0.002 (≈ 0.00222 µM) | 0.03 (≈ 0.0334 µM) | >8 | 2 (≈ 2.22 µM)
2 | CCCNC(=O)NC1CCN(c2cc(O)c3nc4c5c6c7c(C)c(O)c5c(=O)c(c-4oc3c2)NC(=O)/C(C)=C\C=C\[C@H](C)[C@H](O)[C@@H](C)[C@@H](O)[C@@H](C)[C@H](O)[C@H](C)[C@@H](OC)/C=C/O[C@@](C)(O7)C6=O)CC1 [Compound 26] | 1 (≈ 1.06 µM) | 0.00012 (≈ 0.000127 µM) | 0.008 (≈ 0.00849 µM) | >8 | 2 (≈ 2.12 µM)
3 | CO[C@H]1/C=C/O[C@@]2(C)Oc3c(C)c(O)c4c(=O)c(c5oc6cccc(O)c6nc-5c4c3C2=O)NC(=O)/C(C)=C\C=C\[C@H](C)[C@H](O)[C@@H](C)[C@@H](O)[C@@H](C)[C@H](O)[C@@H]1C [Compound 136] | 0.25 (≈ 0.329 µM) | 0.002 (≈ 0.00264 µM) | 0.004 (≈ 0.00527 µM) | 8 (≈ 10.5 µM) | 0.12 (≈ 0.158 µM)
4 | CO[C@H]1/C=C/O[C@@]2(C)Oc3c(C)c(O)c4c(=O)c(c5oc6cc(N7CCN(c8ncccn8)CC7)cc(O)c6nc-5c4c3C2=O)NC(=O)/C(C)=C\C=C\[C@H](C)[C@H](O)[C@@H](C)[C@@H](O)[C@@H](C)[C@H](O)[C@@H]1C [Compound 106] | 0.12 (≈ 0.13 µM) | 0.0005 (≈ 0.000543 µM) | 0.004 (≈ 0.00434 µM) | >8 | 0.25 (≈ 0.271 µM)
5 | CO[C@H]1/C=C/O[C@@]2(C)Oc3c(C)c(O)c4c(=O)c(c5oc6cc(N7CCC(c8ccccc8)CC7)cc(O)c6nc-5c4c3C2=O)NC(=O)/C(C)=C\C=C\[C@H](C)[C@H](O)[C@@H](C)[C@@H](O)[C@@H](C)[C@H](O)[C@@H]1C [Compound 62] | 0.5 (≈ 0.545 µM) | 0.008 (≈ 0.00871 µM) | 0.015 (≈ 0.0163 µM) | >8 | 8 (≈ 8.71 µM)
6 | COc1c(N2CCCC2)cc(C)c2nc3c4c5c6c(C)c(O)c4c(=O)c(c-3oc12)NC(=O)/C(C)=C\C=C\[C@H](C)[C@H](O)[C@@H](C)[C@@H](O)[C@@H](C)[C@H](O)[C@H](C)[C@@H](OC)/C=C/O[C@@](C)(O6)C5=O [Compound 121] | 0.12 (≈ 0.14 µM) | 0.03 (≈ 0.035 µM) | 0.06 (≈ 0.0701 µM) | 8 (≈ 9.35 µM) | 2 (≈ 2.34 µM)
7 | CCCNC(=O)NC1CCN(c2cc(O)c3nc4c5c6c7c(C)c(O)c5c(=O)c(c-4oc3c2)NC(=O)/C(C)=C\C=C\[C@H](C)[C@H](O)[C@@H](C)[C@@H](O)[C@@H](C)[C@H](OC(C)=O)[C@H](C)[C@@H](OC)/C=C/O[C@@](C)(O7)C6=O)CC1 [Compound 28] | 0.25 (≈ 0.254 µM) | 0.002 (≈ 0.00203 µM) | 0.03 (≈ 0.0305 µM) | >8 | 1 (≈ 1.02 µM)
8 | CCOc1c(N2CCN(CC3CC3)CC2)ccc2nc3c4c5c6c(C)c(O)c4c(=O)c(c-3oc12)NC(=O)/C(C)=C\C=C\[C@H](C)[C@H](O)[C@@H](C)[C@@H](O)[C@@H](C)[C@H](O)[C@H](C)[C@@H](OC)/C=C/O[C@@](C)(O6)C5=O [Compound 108] | 1 (≈ 1.08 µM) | 0.015 (≈ 0.0162 µM) | 0.03 (≈ 0.0324 µM) | >8 | 0.5 (≈ 0.54 µM)
9 | CO[C@H]1/C=C/O[C@@]2(C)Oc3c(C)c(O)c4c(=O)c(c5oc6cc(N7CCCN(C)CC7)cc(O)c6nc-5c4c3C2=O)NC(=O)/C(C)=C\C=C\[C@H](C)[C@H](O)[C@@H](C)[C@@H](O)[C@@H](C)[C@H](O)[C@@H]1C [Compound 124] | 0.25 (≈ 0.287 µM) | 0.00012 (≈ 0.000138 µM) | 0.004 (≈ 0.00459 µM) | 4 (≈ 4.59 µM) | 0.03 (≈ 0.0344 µM)
10 | CO[C@H]1/C=C/O[C@@]2(C)Oc3c(C)c(O)c4c(=O)c(c5oc6cc(N7CCC(NS(C)(=O)=O)CC7)cc(O)c6nc-5c4c3C2=O)NC(=O)/C(C)=C\C=C\[C@H](C)[C@H](O)[C@@H](C)[C@@H](O)[C@@H](C)[C@H](OC(C)=O)[C@@H]1C [Compound 25] | 2 (≈ 2.05 µM) | 0.001 (≈ 0.00102 µM) | 0.008 (≈ 0.00819 µM) | >8 | 2 (≈ 2.05 µM)
11 | CCOC(=O)C1CCN(c2cc(O)c3nc4c5c6c7c(C)c(O)c5c(=O)c(c-4oc3c2)NC(=O)/C(C)=C\C=C\[C@H](C)[C@H](O)[C@@H](C)[C@@H](O)[C@@H](C)[C@H](O)[C@H](C)[C@@H](OC)/C=C/O[C@@](C)(O7)C6=O)CC1 [Compound 113] | 0.12 (≈ 0.131 µM) | 0.008 (≈ 0.00875 µM) | 0.004 (≈ 0.00438 µM) | >8 | 0.5 (≈ 0.547 µM)
12 | COC1C=COC2(C)Oc3c(C)c(O)c4c(=O)c(c5sc6cc(N7CCN8CCCC8C7)ccc6nc-5c4c3C2=O)NC(=O)C(C)=CC=CC(C)C(O)C(C)C(O)C(C)C(OC(C)=O)C1C (centres unmarked) [Compound 76] | 0.25 (≈ 0.27 µM) | 0.00025 (≈ 0.00027 µM) | 0.008 (≈ 0.00865 µM) | 4 (≈ 4.32 µM) | 0.5 (≈ 0.54 µM)
13 | CCOc1c(N2CCN(CCOC)CC2)ccc2nc3c4c5c6c(C)c(O)c4c(=O)c(c-3oc12)NC(=O)/C(C)=C\C=C\[C@H](C)[C@H](O)[C@@H](C)[C@@H](O)[C@@H](C)[C@H](O)[C@H](C)[C@@H](OC)/C=C/O[C@@](C)(O6)C5=O [Compound 96] | 0.5 (≈ 0.538 µM) | 0.005 (≈ 0.00538 µM) | 0.015 (≈ 0.0161 µM) | >8 | 1 (≈ 1.08 µM)
14 | CO[C@H]1/C=C/O[C@@]2(C)Oc3c(C)c(O)c4c(=O)c(c5oc6cc(N7CC8CCC(C7)N8)cc(O)c6nc-5c4c3C2=O)NC(=O)/C(C)=C\C=C\[C@H](C)[C@H](O)[C@@H](C)[C@@H](O)[C@@H](C)[C@H](O)[C@@H]1C [Compound 146] | 0.25 (≈ 0.288 µM) | 0.001 (≈ 0.00115 µM) | 0.015 (≈ 0.0173 µM) | 4 (≈ 4.6 µM) | 0.12 (≈ 0.138 µM)
15 | COC1C=COC2(C)Oc3c(C)c(O)c4c(=O)c(c5oc6cc(N7CCN8CCCC8C7)cc(O)c6nc-5c4c3C2=O)NC(=O)C(C)=CC=CC(C)C(O)C(C)C(O)C(C)C(O)C1C (centres unmarked) [Compound 87] | 0.25 (≈ 0.283 µM) | 0.00025 (≈ 0.000283 µM) | 0.002 (≈ 0.00226 µM) | 4 (≈ 4.53 µM) | 0.03 (≈ 0.034 µM)
16 | CO[C@H]1/C=C/O[C@@]2(C)Oc3c(C)c(O)c4c(=O)c(c5oc6cc(N7CCN(CCO)CC7)cc(O)c6nc-5c4c3C2=O)NC(=O)/C(C)=C\C=C\[C@H](C)[C@H](O)[C@@H](C)[C@@H](O)[C@@H](C)[C@H](O)[C@@H]1C [Compound 101] | 0.25 (≈ 0.282 µM) | 0.0005 (≈ 0.000564 µM) | 0.008 (≈ 0.00902 µM) | 8 (≈ 9.02 µM) | 0.12 (≈ 0.135 µM)
17 | CCOC(=O)NC1CCN(c2cc(O)c3nc4c5c6c7c(C)c(O)c5c(=O)c(c-4oc3c2)NC(=O)/C(C)=C\C=C\[C@H](C)[C@H](O)[C@@H](C)[C@@H](O)[C@@H](C)[C@H](OC(C)=O)[C@H](C)[C@@H](OC)/C=C/O[C@@](C)(O7)C6=O)CC1 [Compound 1] | 2 (≈ 2.06 µM) | 0.00025 (≈ 0.000257 µM) | 0.008 (≈ 0.00824 µM) | >8 | 2 (≈ 2.06 µM)
18 | COC1C=COC2(C)Oc3c(C)c(O)c4c(=O)c(c5oc6cc(N7CC8CCCNC8C7)cc(O)c6nc-5c4c3C2=O)NC(=O)C(C)=CC=CC(C)C(O)C(C)C(O)C(C)C(O)C1C (centres unmarked) [Compound 7] | 4 (≈ 4.53 µM) | 0.004 (≈ 0.00453 µM) | 0.12 (≈ 0.136 µM) | >8 | 4 (≈ 4.53 µM)
19 | CO[C@H]1/C=C/O[C@@]2(C)Oc3c(C)c(O)c4c(=O)c(c5oc6cc(N7CCC(NC(C)=O)CC7)cc(O)c6nc-5c4c3C2=O)NC(=O)/C(C)=C\C=C\[C@H](C)[C@H](O)[C@@H](C)[C@@H](O)[C@@H](C)[C@H](OC(C)=O)[C@@H]1C [Compound 44] | 0.25 (≈ 0.266 µM) | 0.008 (≈ 0.0085 µM) | 0.06 (≈ 0.0638 µM) | >8 | 2 (≈ 2.13 µM)
